Structures can show the parent of a compound that is named as a salt. Activity calls are given as the source filed them.
What was measured:
[1] = Luminescence Cell-Based Dose Retest to Confirm Inhibitors of Cancer Stem Cells. [Related pubchem assays (depositor defined):AID2717, AID2721]; type: functional; settings: Homo sapiens
[2] = biological target: T1, Bcl-2-related protein A1 (Mus musculus, UniProt Q07440); type: functional;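 also: confirmatory dose–response counterscreen on Bfl-1, used to check hits from a UBC13 polyubiquitin inhibitor campaign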
T1 sequence (Q07440 whole entry): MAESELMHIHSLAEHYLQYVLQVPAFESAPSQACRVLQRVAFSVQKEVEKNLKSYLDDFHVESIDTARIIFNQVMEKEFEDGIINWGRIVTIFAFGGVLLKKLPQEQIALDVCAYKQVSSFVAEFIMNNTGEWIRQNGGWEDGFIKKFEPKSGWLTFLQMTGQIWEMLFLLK

[3] = biological target: T2, Ubiquitin-conjugating enzyme E2 N (Homo sapiens, UniProt P61088); type: functional
T2 sequence (P61088 whole entry): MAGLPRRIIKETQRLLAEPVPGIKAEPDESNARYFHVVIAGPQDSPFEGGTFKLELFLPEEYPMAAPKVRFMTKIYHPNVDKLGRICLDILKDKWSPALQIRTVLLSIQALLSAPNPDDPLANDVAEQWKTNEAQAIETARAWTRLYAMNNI

[4] = biological target: T2, Ubiquitin-conjugating enzyme E2 N; type: functional; remark: listed apart in the source
[5] = viability loss in HeLa cells – cytotoxicity control for MgcRacGAP inhibitor project, dose response (AID 624300); type: functional
[6] = biological target: T3, Rac GTPase-activating protein 1 (Homo sapiens, UniProt Q9H0H5); assay: blockers of MgcRacGAP-driven Rac1 GTP hydrolysis – biochemical, ADP Hunter fluorescence, primary and confirmatory, confirmation (AID 624330); type: functional
T3 sequence (Q9H0H5 whole entry): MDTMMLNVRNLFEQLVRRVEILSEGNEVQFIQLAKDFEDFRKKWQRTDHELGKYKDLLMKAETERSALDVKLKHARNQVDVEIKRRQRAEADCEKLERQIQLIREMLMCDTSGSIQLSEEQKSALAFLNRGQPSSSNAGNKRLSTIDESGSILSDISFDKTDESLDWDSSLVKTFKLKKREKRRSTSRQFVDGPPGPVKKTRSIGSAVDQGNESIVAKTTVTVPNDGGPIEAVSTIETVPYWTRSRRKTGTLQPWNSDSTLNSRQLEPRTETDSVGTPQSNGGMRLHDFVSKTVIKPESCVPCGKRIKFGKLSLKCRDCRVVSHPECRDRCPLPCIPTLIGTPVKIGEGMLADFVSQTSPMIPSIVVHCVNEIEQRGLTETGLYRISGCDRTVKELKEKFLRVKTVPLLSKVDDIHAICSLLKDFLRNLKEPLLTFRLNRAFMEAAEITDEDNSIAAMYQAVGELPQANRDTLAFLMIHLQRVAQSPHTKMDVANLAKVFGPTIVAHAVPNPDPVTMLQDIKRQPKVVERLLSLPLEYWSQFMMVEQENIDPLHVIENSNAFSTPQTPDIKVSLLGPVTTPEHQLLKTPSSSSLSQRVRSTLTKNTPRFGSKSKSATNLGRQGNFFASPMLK

[7] = biological target: T4, High affinity choline transporter 1 (Homo sapiens, UniProt Q9GZV3); assay: human choline transporter blockers, potency – cell-based, 5-point CRC, membrane potential dye, dose response (AID 504840); type: functional
T4 sequence (Q9GZV3 whole entry): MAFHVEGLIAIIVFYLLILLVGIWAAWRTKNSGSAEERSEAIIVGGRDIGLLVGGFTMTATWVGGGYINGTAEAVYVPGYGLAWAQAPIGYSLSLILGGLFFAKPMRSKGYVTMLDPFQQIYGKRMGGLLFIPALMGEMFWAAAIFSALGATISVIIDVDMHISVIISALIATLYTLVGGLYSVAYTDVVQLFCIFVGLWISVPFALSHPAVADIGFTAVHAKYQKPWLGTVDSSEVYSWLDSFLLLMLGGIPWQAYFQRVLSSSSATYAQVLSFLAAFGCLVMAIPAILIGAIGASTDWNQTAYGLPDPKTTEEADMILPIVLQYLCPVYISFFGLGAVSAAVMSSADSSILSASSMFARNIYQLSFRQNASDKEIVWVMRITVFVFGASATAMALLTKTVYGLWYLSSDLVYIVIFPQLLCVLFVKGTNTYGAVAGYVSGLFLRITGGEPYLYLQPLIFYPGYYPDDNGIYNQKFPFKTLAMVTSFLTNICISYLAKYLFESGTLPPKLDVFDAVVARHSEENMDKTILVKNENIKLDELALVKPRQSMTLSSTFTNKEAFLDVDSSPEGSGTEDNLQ

[8] = biological target: T4, High affinity choline transporter 1; assay: human choline transporter blockers, potency – cell-based, 10-point CRC, membrane potential dye, dose response (AID 588401); type: functional;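 also: membrane potential dye fluorescence of choline-evoked depolarization via CHT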
[9] = tested on: Escherichia coli; assay: microbe, parasite or virus in culture
[10] = biological target: Peroxisome proliferator-activated receptor gamma/Nuclear receptor coactivator 2 (Homo sapiens, UniProt P37231); type: functional;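 also: agonist potency for raising coactivator recruitment to the receptor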
Chain of Peroxisome proliferator-activated receptor gamma/Nuclear receptor coactivator 2 (P37231 whole entry): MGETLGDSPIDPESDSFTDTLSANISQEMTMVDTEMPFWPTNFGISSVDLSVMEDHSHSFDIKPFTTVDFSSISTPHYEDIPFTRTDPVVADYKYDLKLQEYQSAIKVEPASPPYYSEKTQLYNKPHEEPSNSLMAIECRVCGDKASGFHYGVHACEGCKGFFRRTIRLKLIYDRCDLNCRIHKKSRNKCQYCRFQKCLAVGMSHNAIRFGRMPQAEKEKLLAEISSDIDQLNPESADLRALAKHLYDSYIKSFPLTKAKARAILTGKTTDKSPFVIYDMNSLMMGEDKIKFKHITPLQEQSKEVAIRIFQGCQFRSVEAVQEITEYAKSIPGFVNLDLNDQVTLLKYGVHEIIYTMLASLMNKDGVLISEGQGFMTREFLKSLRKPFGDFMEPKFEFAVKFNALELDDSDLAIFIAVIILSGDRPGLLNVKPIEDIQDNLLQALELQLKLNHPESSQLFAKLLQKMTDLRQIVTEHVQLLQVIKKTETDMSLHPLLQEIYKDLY
Chain of Peroxisome proliferator-activated receptor gamma/Nuclear receptor coactivator 2 (Q15596 whole entry, further chain): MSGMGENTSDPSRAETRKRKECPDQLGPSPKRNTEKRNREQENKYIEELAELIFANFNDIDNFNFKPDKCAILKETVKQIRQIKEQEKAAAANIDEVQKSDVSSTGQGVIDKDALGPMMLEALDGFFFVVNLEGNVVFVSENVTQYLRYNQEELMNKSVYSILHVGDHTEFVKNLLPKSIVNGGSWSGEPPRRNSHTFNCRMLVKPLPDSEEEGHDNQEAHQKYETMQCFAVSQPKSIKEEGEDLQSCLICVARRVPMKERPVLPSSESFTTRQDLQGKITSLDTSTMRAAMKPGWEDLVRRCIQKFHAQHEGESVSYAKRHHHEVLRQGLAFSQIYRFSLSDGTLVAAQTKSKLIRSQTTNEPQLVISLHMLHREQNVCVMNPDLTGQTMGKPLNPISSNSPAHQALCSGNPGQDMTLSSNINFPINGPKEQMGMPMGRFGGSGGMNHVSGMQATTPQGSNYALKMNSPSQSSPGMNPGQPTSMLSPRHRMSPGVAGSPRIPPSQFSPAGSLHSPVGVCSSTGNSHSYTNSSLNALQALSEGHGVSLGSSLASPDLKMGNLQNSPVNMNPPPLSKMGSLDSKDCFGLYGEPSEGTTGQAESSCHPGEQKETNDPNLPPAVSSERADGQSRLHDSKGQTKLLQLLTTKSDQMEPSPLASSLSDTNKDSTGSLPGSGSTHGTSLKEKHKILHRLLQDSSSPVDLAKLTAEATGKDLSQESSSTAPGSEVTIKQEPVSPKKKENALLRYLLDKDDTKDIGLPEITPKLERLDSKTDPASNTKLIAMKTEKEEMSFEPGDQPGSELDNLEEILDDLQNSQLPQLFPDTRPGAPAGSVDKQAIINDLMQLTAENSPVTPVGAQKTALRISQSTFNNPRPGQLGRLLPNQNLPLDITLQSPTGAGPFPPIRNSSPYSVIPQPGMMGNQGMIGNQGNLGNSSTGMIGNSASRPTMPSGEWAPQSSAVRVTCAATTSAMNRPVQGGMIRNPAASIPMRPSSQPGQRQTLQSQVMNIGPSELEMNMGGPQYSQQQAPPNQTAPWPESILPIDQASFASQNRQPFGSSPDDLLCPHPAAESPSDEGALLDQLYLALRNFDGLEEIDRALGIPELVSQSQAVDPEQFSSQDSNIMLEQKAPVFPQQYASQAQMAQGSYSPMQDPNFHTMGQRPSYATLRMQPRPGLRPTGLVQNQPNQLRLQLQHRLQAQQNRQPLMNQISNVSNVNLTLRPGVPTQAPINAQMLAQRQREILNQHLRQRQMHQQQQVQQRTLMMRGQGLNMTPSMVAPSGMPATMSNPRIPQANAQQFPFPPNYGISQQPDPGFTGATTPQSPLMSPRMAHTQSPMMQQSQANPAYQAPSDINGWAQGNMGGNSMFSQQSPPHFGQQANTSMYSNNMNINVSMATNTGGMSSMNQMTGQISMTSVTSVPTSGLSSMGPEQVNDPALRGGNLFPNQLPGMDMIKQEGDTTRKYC

[11] = biological target: Peroxisome proliferator-activated receptor gamma/Nuclear receptor coactivator 1 (Homo sapiens, UniProt P37231); type: functional;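 also: agonist potency as compounds enhance coactivator SRC-1 recruitment to PPARgamma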
[12] = biological target: Peroxisome proliferator-activated receptor gamma/Nuclear receptor coactivator 3 (Homo sapiens, UniProt P37231); type: functional;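 also: agonist potency for raising coactivator recruitment to the receptor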
Chain of Peroxisome proliferator-activated receptor gamma/Nuclear receptor coactivator 3 (P37231 whole entry): as the sequence (P37231 whole entry) above
Chain of Peroxisome proliferator-activated receptor gamma/Nuclear receptor coactivator 3 (Q9Y6Q9 whole entry, further chain): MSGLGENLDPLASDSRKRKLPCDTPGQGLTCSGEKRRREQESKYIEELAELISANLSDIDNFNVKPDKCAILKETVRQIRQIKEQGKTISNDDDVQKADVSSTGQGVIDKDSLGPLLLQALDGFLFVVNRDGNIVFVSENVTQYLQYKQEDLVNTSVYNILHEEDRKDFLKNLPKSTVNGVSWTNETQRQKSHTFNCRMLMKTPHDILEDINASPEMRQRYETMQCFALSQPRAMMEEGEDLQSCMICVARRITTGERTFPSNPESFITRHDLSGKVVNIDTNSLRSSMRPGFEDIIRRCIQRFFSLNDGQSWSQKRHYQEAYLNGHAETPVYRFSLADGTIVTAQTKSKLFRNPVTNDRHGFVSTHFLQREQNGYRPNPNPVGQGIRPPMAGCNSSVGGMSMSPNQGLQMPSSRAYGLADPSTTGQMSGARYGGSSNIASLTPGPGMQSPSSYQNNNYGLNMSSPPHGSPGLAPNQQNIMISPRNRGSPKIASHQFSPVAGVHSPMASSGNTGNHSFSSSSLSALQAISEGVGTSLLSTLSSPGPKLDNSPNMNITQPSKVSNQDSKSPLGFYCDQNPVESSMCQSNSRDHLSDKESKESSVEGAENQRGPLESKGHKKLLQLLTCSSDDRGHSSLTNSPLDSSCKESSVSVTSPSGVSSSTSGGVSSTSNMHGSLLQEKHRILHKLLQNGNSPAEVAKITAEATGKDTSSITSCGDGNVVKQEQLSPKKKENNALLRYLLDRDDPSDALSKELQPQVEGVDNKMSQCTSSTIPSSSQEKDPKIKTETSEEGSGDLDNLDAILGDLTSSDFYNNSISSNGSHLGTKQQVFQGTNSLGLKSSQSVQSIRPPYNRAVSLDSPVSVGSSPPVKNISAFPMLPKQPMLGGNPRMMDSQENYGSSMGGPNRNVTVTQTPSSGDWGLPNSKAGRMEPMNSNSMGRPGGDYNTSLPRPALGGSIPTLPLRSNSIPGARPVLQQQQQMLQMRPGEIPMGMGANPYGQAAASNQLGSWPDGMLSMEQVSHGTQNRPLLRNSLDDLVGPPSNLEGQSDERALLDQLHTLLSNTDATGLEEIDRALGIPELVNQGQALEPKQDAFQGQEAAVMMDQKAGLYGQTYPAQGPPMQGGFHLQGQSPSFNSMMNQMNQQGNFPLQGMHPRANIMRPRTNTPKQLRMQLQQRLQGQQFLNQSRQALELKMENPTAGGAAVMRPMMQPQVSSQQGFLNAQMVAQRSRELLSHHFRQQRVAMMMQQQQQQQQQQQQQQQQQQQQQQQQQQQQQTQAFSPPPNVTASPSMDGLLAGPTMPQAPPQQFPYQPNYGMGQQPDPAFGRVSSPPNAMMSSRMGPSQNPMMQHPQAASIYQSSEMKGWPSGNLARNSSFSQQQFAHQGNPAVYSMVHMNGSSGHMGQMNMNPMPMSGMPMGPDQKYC

[13] = biological target: Heat shock protein HSP 90-alpha (Homo sapiens, UniProt P07900); type: functional, organism-based
[14] = tested on: H9c2; assay: cells; type: functional, cell-based; settings: Rattus norvegicus, H9c2, Myocardium;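 also: confirmatory concentration-response retest of ultra-high-throughput screening hits for modulation of myocardial damage; cell death induced by hydrogen peroxide oxidative stress; compound pretreatment for 60 min then peroxide exposure for 2 h; potency is for protecting the cells against peroxide damage rather than for killing them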
[15] = biological target: T5, Apoptotic protease-activating factor 1 (Homo sapiens, UniProt O14727); type: functional
T5 sequence (O14727 whole entry): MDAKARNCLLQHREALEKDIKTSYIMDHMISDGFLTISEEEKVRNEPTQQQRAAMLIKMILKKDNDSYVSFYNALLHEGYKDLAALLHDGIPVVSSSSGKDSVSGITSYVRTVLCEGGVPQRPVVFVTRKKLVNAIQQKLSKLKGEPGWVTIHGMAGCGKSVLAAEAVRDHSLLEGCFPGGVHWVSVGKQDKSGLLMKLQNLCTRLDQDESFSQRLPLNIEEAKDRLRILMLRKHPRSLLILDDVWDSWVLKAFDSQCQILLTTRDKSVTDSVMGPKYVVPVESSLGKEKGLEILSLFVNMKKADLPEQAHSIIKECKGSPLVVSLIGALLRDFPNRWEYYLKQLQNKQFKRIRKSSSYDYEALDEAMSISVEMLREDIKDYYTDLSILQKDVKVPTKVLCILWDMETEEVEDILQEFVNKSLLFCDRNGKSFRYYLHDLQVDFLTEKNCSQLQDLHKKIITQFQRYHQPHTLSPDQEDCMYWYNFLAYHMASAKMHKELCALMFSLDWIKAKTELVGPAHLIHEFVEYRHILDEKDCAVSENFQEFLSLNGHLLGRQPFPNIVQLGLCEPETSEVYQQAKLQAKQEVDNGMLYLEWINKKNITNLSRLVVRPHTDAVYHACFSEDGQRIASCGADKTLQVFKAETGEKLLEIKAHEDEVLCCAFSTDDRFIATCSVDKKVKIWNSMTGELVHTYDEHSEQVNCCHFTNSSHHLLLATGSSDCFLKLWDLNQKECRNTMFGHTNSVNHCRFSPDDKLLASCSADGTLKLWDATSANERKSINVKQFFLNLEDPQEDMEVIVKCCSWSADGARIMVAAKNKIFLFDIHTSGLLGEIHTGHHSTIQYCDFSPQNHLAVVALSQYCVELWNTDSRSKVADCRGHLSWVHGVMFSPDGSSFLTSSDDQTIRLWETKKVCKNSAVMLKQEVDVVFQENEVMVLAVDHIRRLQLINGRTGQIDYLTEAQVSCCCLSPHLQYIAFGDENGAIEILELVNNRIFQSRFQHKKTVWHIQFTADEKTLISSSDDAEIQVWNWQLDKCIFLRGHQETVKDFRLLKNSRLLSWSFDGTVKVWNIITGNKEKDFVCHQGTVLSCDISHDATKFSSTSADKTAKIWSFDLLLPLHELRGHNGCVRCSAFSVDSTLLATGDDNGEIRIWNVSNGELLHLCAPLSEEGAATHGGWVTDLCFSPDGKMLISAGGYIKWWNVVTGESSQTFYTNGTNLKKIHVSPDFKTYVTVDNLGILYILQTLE

[16] = biological target: 26S proteasome non-ATPase regulatory subunit 14 (Homo sapiens, UniProt O00487); assay: inhibition of proteasome subunit RPN11 – biochemical, fluorescence polarization, uHTS hits, confirmation (AID 602368); type: functional
Chain of 26S proteasome non-ATPase regulatory subunit 14 (O00487 whole entry): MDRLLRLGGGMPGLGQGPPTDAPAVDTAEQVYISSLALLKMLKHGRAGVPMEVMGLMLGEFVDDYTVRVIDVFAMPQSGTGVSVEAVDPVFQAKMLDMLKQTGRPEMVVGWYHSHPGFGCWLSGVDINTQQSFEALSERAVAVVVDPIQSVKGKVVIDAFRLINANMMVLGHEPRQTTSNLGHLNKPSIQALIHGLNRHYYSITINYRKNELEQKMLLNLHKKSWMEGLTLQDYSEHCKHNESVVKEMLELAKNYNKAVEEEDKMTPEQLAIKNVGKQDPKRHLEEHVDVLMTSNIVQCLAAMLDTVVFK

[17] = biological target: 72 kDa type IV collagenase (Homo sapiens, UniProt P08253); assay: Dose Response validation of uHTS RPN11 inhibitor hits using a MMP-2 Fluorescence assay.; type: functional
Chain of 72 kDa type IV collagenase (P08253 whole entry): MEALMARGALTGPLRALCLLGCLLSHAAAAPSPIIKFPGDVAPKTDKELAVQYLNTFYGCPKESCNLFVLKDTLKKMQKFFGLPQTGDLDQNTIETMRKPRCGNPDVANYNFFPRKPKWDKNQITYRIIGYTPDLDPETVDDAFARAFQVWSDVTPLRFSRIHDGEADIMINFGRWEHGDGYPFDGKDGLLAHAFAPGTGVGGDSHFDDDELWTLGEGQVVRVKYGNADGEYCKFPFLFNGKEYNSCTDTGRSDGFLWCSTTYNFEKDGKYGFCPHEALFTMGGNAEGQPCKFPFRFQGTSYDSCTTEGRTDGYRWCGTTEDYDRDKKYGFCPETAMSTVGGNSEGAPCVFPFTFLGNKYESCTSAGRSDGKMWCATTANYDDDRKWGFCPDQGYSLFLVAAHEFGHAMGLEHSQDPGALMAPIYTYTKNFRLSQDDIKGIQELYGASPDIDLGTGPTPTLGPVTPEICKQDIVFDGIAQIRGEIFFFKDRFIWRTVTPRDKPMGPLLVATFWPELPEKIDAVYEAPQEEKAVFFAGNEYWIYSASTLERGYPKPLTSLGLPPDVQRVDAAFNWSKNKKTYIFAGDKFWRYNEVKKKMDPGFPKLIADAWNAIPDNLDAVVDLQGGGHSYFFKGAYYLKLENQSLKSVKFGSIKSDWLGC

[18] = biological target: Prothrombin (Bos taurus, UniProt P00735); assay: thrombin protease inhibitors – biochemical, fluorescence polarization, uHTS hits, dose response (AID 602369); type: functional

SMILES: O=C(c1ccc(OCCN2CCCCC2)cc1)c1c(-c2ccc(O)cc2)sc2cc(O)ccc12 [RALOXIFENE HYDROCHLORIDE]
- AC50 [1]: 1.75 µM (active)
- IC50 [2]: > 20 µM (inactive)
- IC50 [3]: 14.2 µM (active)
- IC50 [4]: 17.5 µM (active)
- CC50 [5]: 99.6 µM (active)
- IC50 [6]: 27.8 µM (active)

SMILES: Cc1ccc(C[S+]([O-])Cc2ccc(C(=O)NC3CCCC(C)C3C)o2)cc1 (stereo not given)
- IC50 [7]: 9.8 µM (active)
- IC50 [8]: 7.23 µM (active)

SMILES: COc1ccc(C(=O)NC2(C(F)(F)F)C(=O)Nc3c2c(=O)[nH]c(=O)n3CCc2ccc(OC)c(OC)c2)cc1 (stereo not given)
- AC50 [9]: 25.4 µM (active)

SMILES: Oc1c(Br)cc(Br)cc1/C=N/Cc1ccc(F)cc1
- EC50 [10]: 38.3 µM (not active)
- EC50 [11]: > 79.4 µM (not active)
- EC50 [12]: > 79.4 µM (not active)
- AC50 [13]: 6.15 µM (active)
- IC50 [7]: 9.21 µM (active)
- IC50 [14]: > 79 µM (inactive)
- IC50 [8]: 3.64 µM (active)

SMILES: CCN(CC)CCCn1c2c(c(SCC(=O)Nc3ccc(OC(F)(F)F)cc3)nc1=O)CCC2
- IC50 [7]: 7.92 µM (active)
- IC50 [8]: 6.21 µM (active)

SMILES: COc1ccc(NS(=O)(=O)c2ccc(C)c(NC(=O)CN3C(=O)NC4(CCCC4)C3=O)c2)cc1
- IC50 [2]: > 20 µM (inactive)
- IC50 [3]: 16.3 µM (active)
- IC50 [4]: > 20 µM (inactive)
- IC50 [15]: 23.2 µM (active)
- IC50 [16]: 3.31 µM (active)
- IC50 [17]: > 100 µM (inactive)
- IC50 [18]: 79.2 µM (active)
